One data set addresses T1, human PPARγ (Homo sapiens, UniProt P37231).
T1 construct: DNA constructs encoding human LBD domains of human PPARα, PPARγ, of LXRα (pGAL4-PPARα, pGAL4-PPARγ, pGAL4-LXRα); expressed in transfected cells; host or cells: HepG2
T1 sequence (P37231 238-503 limits assumed): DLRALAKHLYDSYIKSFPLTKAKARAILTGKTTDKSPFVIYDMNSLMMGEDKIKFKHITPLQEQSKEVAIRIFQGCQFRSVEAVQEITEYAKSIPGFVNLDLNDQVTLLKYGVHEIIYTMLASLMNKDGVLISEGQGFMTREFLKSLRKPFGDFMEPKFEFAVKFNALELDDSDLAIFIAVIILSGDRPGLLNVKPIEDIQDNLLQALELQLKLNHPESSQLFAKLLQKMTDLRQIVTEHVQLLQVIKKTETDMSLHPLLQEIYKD
The data set can be described thus: PPARγ luciferase reporter gene assay (pGAL4-PPARγ / pGL5-UAS 9x) in HepG2 cells. It counts as cell-based. The settings on record: HepG2, 24 h.

The test system of another data set is C57BL/6J mice. Kind of data set: Pilot study in mice, liver mRNA expression by RT-qPCR. The format is in vivo. To be noted: 3x 30 mg/kg p.o. gavage, liver 24 h after last application, vs vehicle. As for the experimental part:
Compounds 35 and 37 have been applied three times after 24 h (3x 30 mg/kg) via p.o. gavage to wild-type C57BL/6J mice. After 24 h from the last application, mice were sacrificed, and live samples collected on dry ice for total RNA isolation. RT-qPCR experiments have been performed with TaqMan probes and expression has been quantified using a reference gene (beta-actin and Gapdh) and delta-delta method. Data represents fold up or downregulation in mRNA expression for tested genes related to the expression in vehicle-treated control animals. * - statistically significant (p<0.05) up- or down- regulation in animals treated with tested compounds (n=4).
In the pilot study, compounds of the invention 37 and 35 were applied by per os probe (gavage) to male mice of age 15 weeks (n=4 per group) three times (3 x 30 mg/kg b.w.) in 1%PEG300/methylcellulose solution (compounds of EXAMPLE 37or 35). Livers were sampled 24 hours after application into liquid nitrogen for total RNA insolation and for qRT-PCR analysis (Quantstudio 7 HT Fast Real-Time PCR System).
Expressions of NR target genes mRNAs in livers of mice or in 3D cultured (spheroids) primary human hepatocytes have been performed using TaqMan probes-based RT-qPCR after isolation of total RNA by Trizol® (ThermoFischer Scientific) reagent and reverse transcription synthesis of cDNA in Quant Studio cycler. Real-time qPCR TaqMan probes have been purchased prom ThermoFisher scientific (Cat. No. 4351372 and 433118). Delta-delta method and Gapdh or TATA-box binding protein (TBP) housekeeping genes were used for relative quantification. Data are expressed as fold up-/down-regulation compared to vehicle-treated samples/mice.
A general note: Quantitative PCR measures a nucleic acid by following its amplification.

Another data set has as its target T2, human FXR (Homo sapiens, UniProt Q96RI1).
T2 construct: expressed in transfected cells; host or cells: HepG2
T2 sequence (Q96RI1 1-486): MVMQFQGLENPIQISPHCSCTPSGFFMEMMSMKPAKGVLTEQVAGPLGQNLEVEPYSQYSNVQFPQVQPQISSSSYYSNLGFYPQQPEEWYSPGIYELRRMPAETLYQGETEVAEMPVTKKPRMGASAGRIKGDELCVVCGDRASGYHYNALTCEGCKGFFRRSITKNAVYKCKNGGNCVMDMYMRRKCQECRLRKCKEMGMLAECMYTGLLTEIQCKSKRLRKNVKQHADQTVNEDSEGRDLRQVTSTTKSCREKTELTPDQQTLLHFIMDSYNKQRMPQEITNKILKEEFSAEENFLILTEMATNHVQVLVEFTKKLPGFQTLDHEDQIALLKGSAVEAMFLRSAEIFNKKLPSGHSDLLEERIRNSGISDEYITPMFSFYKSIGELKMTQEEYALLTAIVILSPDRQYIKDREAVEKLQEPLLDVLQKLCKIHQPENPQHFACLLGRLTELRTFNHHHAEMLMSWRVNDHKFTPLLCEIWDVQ
The data set can be described thus: FXR responsive luciferase reporter gene assay (FXRE-luc + human FXR expression construct) in HepG2 cells. The format is cell-based. To be noted: HepG2, 24 h. The source says: (§1) In HepG2 cells, luciferase gene reporter assays have been performed with the transiently transfected reporter gene luciferase construct with the UAS yeast binding site interacting with GAL4 protein (pGL5-UAS 9x, Promega). DNA constructs encoding human LBD domains of human PPARα, PPARγ, of LXRα (pGAL4-PPARα, pGAL4-PPARγ, pGAL4-LXRα) have been cotransfected with the reporter construct. For FXR, FXRE-luc construct with FXR response elements upstream of Firefly luciferase has been used together with an expression construct for human FXR for HepG2 cells transfection. HepG2 cells were then treated with compounds of the invention for 24 h.
For orientation: In a reporter assay the amount or activity of a reporter protein is the signal.

For the next data set, the target named is T3, human PPARα (Homo sapiens, UniProt Q07869).
T3 construct: DNA constructs encoding human LBD domains of human PPARα, PPARγ, of LXRα (pGAL4-PPARα, pGAL4-PPARγ, pGAL4-LXRα); expressed in transfected cells; host or cells: HepG2
T3 sequence (Q07869 239-466 limits assumed): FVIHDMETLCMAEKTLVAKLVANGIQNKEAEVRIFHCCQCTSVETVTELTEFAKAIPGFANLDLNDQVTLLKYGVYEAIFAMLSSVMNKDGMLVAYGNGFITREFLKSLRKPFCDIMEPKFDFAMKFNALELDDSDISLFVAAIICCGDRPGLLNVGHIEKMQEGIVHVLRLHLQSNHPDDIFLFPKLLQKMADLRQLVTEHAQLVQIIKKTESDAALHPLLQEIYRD
Kind of data set: PPARα responsive luciferase reporter gene assay (pGAL4-PPARα / pGL5-UAS 9x) in HepG2 cells. It counts as cell-based. The settings on record: relative activation to fenofibrate 10 µM (100%), HepG2, 24 h, negative value indicates inverse agonism.
Description: Bezafibrate, GW7647 and WY14643 are known PPARα ligands. […] GW3965 is known high-affinity LXRα ligand. […]
as §1

Another data set addresses T4, human LXRα (Homo sapiens, UniProt Q13133).
T4 construct: DNA constructs encoding human LBD domains of human PPARα, PPARγ, of LXRα (pGAL4-PPARα, pGAL4-PPARγ, pGAL4-LXRα); expressed in transfected cells; host or cells: HepG2
T4 sequence (Q13133 209-447 limits assumed): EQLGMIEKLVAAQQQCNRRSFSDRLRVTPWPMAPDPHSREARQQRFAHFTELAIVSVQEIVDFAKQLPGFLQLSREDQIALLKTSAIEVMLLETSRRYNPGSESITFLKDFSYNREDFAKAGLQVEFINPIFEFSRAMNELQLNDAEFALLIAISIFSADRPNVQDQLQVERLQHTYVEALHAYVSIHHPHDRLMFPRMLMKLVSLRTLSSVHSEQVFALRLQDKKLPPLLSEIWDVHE
Kind of data set: LXRα luciferase reporter gene assay, inhibition of activation by GW3965 (pGAL4-LXRα / pGL5-UAS 9x) in HepG2 cells. The format is cell-based. The settings on record: HepG2, 24 h; read-out: LXRα antagonism. The method, then: Bezafibrate, GW7647 and WY14643 are known PPARα ligands. […] GW3965 is known high-affinity LXRα ligand.
Inverse agonistic/antagonistic activities of tested compounds to LXRα receptor activated by the LXRα agonist GW3965(10 µM). […] Negative value indicates inverse agonism.
as §1

One compound from patent publication EP4583874B1, “MULTITARGET NUCLEAR RECEPTOR LIGANDS BASED ON 2-(4-(QUINOLIN-2-YLOXY)PHENOXY)PROPANOIC ACID AND 2-(4-(QUINOXALIN-2-YLOXY)PHENOXY)PROPANOIC ACID FOR THE TREATMENT OF METABOLIC AND LIVER DISEASES” (CHARLES UNIVERSITY, FACULTY OF PHARMACY IN HRADEC KRALOVE, priority 2022, dated 2024) can be followed below.

What is called Emax is the greatest response seen or fitted, relative to the assay's reference.

In turn, `C[C@@H](Oc1ccc(Oc2ccc3c(Cl)cccc3n2)cc1)C(=O)O` [compound 37, (R)-2-(4-((5-Chloroquinolin-2-yl)oxy)phenoxy)propanoic acid] showed a maximal response (Emax) at 10 µM on human PPARγ of 1%. Besides, in the data set with C57BL/6J mice, the “Cyp7a1 expression in the mouse liver” value is recorded as “down-regulates”, the “Fasn gene expression in the mouse liver” value is reported as “down-regulate”, the “Pck1 gene expression in the mouse liver” value is “down-regulate” and the “cholesterol efflux transporters Abcg5/8 expression in the mouse liver” value is reported as “down-regulates”. Also, the “key protein involved in fatty acid (beta) oxidation, mRNA expression in the mouse liver” value in the data set on C57BL/6J mice is “up-regulate”. The Emax at 10 µM on human FXR was 77%. This compound registered an Emax at 10 µM at human PPARα of 8%. Besides, the inhibition at 10 µM on human LXRα came to 39%.
